Laboratory results taken from ChEMBL document CHEMBL1201862, “PubChem BioAssay data set” (2004).
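Five concentrations, 48 hours, 96-well plates. GI50 marks 50% less growth.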 Activity calls are given as the source filed them. No stated cut-off is given here; in the data, active = GI50 up to about 1.1 µM and inactive = higher.

What was measured:
Assay in all cases: inhibition of tumour cell growth, NCI panel, 48 h
[1] = system: 786-0
[2] = system: A498
[3] = system: A549
[4] = system: ACHN
[5] = system: BT-549
[6] = system: CAKI-1
[7] = system: CCRF-CEM
[8] = system: COLO 205
[9] = system: DU-145
[10] = system: EKVX
[11] = system: HCC 2998
[12] = system: HCT-116
[13] = system: HCT-15
[14] = system: HL-60
[15] = system: HOP-62
[16] = system: HOP-92
[17] = system: HT-29
[18] = system: Hs-578T
[19] = system: IGROV-1
[20] = system: K562
[21] = system: KM12
[22] = system: LOX IMVI
[23] = system: M14
[24] = system: MCF7
[25] = system: MDA-MB-231
[26] = system: MDA-MB-435
[27] = system: MDA-N
[28] = system: MOLT-4
[29] = system: Malme-3M
[30] = system: NCI-H226
[31] = system: NCI-H23
[32] = system: NCI-H460
[33] = system: NCI-H522
[34] = system: NCI/ADR-RES
[35] = system: OVCAR-3
[36] = system: OVCAR-4
[37] = system: OVCAR-5
[38] = system: OVCAR-8
[39] = system: PC-3
[40] = system: RPMI-8226
[41] = system: RXF 393
[42] = system: SF-268
[43] = system: SF-295
[44] = system: SF-539
[45] = system: SK-MEL-28
[46] = system: SK-MEL-2
[47] = system: SK-MEL-5
[48] = system: SK-OV-3
[49] = system: SN12C
[50] = system: SNB-19
[51] = system: SNB-75
[52] = system: SR
[53] = system: SW-620
[54] = system: T47D
[55] = system: TK-10
[56] = system: U-251
[57] = system: UACC-257
[58] = system: UACC-62
[59] = system: UO-31

`O=C(O)CCSC(CC1(c2ccc(Cl)cc2)NC(=O)CCS1)c1ccccc1` (centres undefined) was tested, and the GI50 [1] was 6.7 µM (inactive), the GI50 [2] was 21.5 µM (inactive) and the GI50 [3] was 24.2 µM (inactive). The GI50 [4] was 25.5 µM (inactive), the GI50 [5] was 17 µM (inactive) and the GI50 [6] was 16.9 µM (inactive). For the same molecule, the GI50 [7] was 1.9 µM (inactive), the GI50 [8] was 22.3 µM (inactive) and the GI50 [9] was > 39.4 µM (inactive). For the same molecule, the GI50 [10] was 21.5 µM (inactive), the GI50 [11] was 10 µM (inactive) and the GI50 [12] was 4.71 µM (inactive). The GI50 [13] was 8.09 µM, the GI50 [14] was 3.44 µM (inactive) and the GI50 [15] was 21.2 µM (inactive). For the same molecule, the GI50 [16] was 33.8 µM (inactive), the GI50 [17] was 17.3 µM (inactive) and the GI50 [18] was 12.9 µM (inactive). The GI50 [19] was 12.1 µM (inactive), the GI50 [20] was 10.8 µM (inactive) and the GI50 [21] was 3.56 µM (inactive). For the same molecule, the GI50 [22] was 14.6 µM (inactive), the GI50 [23] was 19.4 µM (inactive) and the GI50 [24] was 3.87 µM (inactive). For the same molecule, the GI50 [25] was 22.1 µM (inactive), the GI50 [26] was 14.3 µM (inactive) and the GI50 [27] was 12.6 µM (inactive). The GI50 [28] was 12.5 µM (inactive), the GI50 [29] was 22.9 µM (inactive) and the GI50 [30] was 17.3 µM (inactive). For the same molecule, the GI50 [31] was 20.9 µM (inactive), the GI50 [32] was 16.8 µM (inactive) and the GI50 [33] was 15.1 µM (inactive). The GI50 [34] was 20.8 µM (inactive), the GI50 [35] was 20.2 µM (inactive) and the GI50 [36] was 15 µM (inactive). For the same molecule, the GI50 [37] was 17.9 µM (inactive), the GI50 [38] was 19.9 µM (inactive) and the GI50 [39] was 18.7 µM (inactive). For the same molecule, the GI50 [40] was 3.56 µM (inactive), the GI50 [41] was 21.7 µM (inactive) and the GI50 [42] was 18 µM (inactive). For the same molecule, the GI50 [43] was 21.2 µM (inactive), the GI50 [44] was 7.98 µM (inactive) and the GI50 [45] was 17.9 µM (inactive). The GI50 [46] was 18.7 µM (inactive), the GI50 [47] was 13 µM (inactive) and the GI50 [48] was 20.5 µM (inactive). For the same molecule, the GI50 [49] was 18.3 µM (inactive), the GI50 [50] was 23.8 µM (inactive) and the GI50 [51] was 17.1 µM (inactive). For the same molecule, the GI50 [52] was 8.32 µM (inactive), the GI50 [53] was 5.12 µM (inactive) and the GI50 [54] was 16.1 µM (inactive). For the same molecule, the GI50 [55] was 18.4 µM (inactive), the GI50 [56] was 10.4 µM (inactive) and the GI50 [57] was 21.9 µM (inactive). For the same molecule, the GI50 [58] was 19.9 µM (inactive) and the GI50 [59] was 20.7 µM (inactive).
For `CCC(C#N)N(Cc1cccc(CN(C(C)=O)C(C#N)CC)c1)C(C)=O` (centres undefined), the GI50 [1] was > 100 µM (inactive), the GI50 [2] was > 100 µM (inactive) and the GI50 [3] was > 100 µM (inactive). The GI50 [4] was > 100 µM (inactive), the GI50 [5] was > 100 µM (inactive) and the GI50 [6] was > 100 µM (inactive). The GI50 [7] was > 100 µM (inactive), the GI50 [8] was > 100 µM (inactive) and the GI50 [9] was > 100 µM (inactive). For the same molecule, the GI50 [10] was > 100 µM (inactive), the GI50 [11] was 97.1 µM (inactive) and the GI50 [12] was > 100 µM (inactive). For the same molecule, the GI50 [13] was 42.9 µM, the GI50 [14] was > 100 µM (inactive) and the GI50 [15] was > 100 µM (inactive). For the same molecule, the GI50 [16] was 6.56 µM (inactive), the GI50 [17] was 7.57 µM (inactive) and the GI50 [18] was > 100 µM (inactive). The GI50 [19] was > 100 µM (inactive), the GI50 [20] was > 100 µM (inactive) and the GI50 [21] was > 100 µM (inactive). For the same molecule, the GI50 [22] was > 100 µM (inactive), the GI50 [23] was > 100 µM (inactive) and the GI50 [24] was > 100 µM (inactive). The GI50 [25] was 46.6 µM (inactive), the GI50 [26] was > 100 µM (inactive) and the GI50 [27] was > 100 µM (inactive). For the same molecule, the GI50 [28] was 5.52 µM (inactive), the GI50 [29] was > 100 µM (inactive) and the GI50 [30] was 44.5 µM (inactive). The GI50 [31] was > 100 µM (inactive), the GI50 [33] was > 100 µM (inactive) and the GI50 [34] was 84.1 µM (inactive). The GI50 [35] was > 100 µM (inactive), the GI50 [36] was 31.4 µM (inactive) and the GI50 [37] was > 100 µM (inactive). The GI50 [38] was > 100 µM (inactive), the GI50 [39] was > 100 µM (inactive) and the GI50 [40] was > 100 µM (inactive). The GI50 [41] was > 100 µM (inactive), the GI50 [42] was > 100 µM (inactive) and the GI50 [43] was > 100 µM (inactive). The GI50 [44] was > 100 µM (inactive), the GI50 [46] was > 100 µM (inactive) and the GI50 [47] was > 100 µM (inactive). For the same molecule, the GI50 [48] was > 100 µM (inactive), the GI50 [49] was > 100 µM (inactive) and the GI50 [50] was > 100 µM (inactive). For the same molecule, the GI50 [51] was 12 µM (inactive), the GI50 [52] was 77.8 µM (inactive) and the GI50 [53] was > 100 µM (inactive). The GI50 [54] was 7.24 µM (inactive), the GI50 [55] was > 100 µM (inactive) and the GI50 [56] was > 100 µM (inactive). For the same molecule, the GI50 [57] was > 100 µM (inactive), the GI50 [58] was > 100 µM (inactive) and the GI50 [59] was > 100 µM (inactive).
In the case of `CN1CCN(c2cc3nc4cc(O)cc(O)c4c(O)c3cc2N)CC1`, the GI50 [1] is reported as 38.7 µM (inactive), the GI50 [2] is reported as 21.6 µM (inactive) and the GI50 [3] is reported as 61 µM (inactive). For the same molecule, the GI50 [4] was 27.5 µM (inactive), the GI50 [5] was 28.6 µM (inactive) and the GI50 [6] was 23.3 µM (inactive). For the same molecule, the GI50 [7] was 13.4 µM (inactive), the GI50 [8] was 14 µM (inactive) and the GI50 [9] was 46.5 µM (inactive). For the same molecule, the GI50 [10] was 19.4 µM (inactive), the GI50 [11] was 16.2 µM (inactive) and the GI50 [12] was 35.8 µM (inactive). The GI50 [13] was 67 µM, the GI50 [14] was 20.1 µM (inactive) and the GI50 [15] was 33.6 µM (inactive). The GI50 [16] was 10.6 µM (inactive), the GI50 [17] was 23.2 µM (inactive) and the GI50 [18] was 29.7 µM (inactive). The GI50 [19] was 20.2 µM (inactive), the GI50 [20] was 14.5 µM (inactive) and the GI50 [21] was 27.4 µM (inactive). The GI50 [22] was 16.2 µM (inactive), the GI50 [23] was 37.1 µM (inactive) and the GI50 [24] was 17.7 µM (inactive). The GI50 [25] was 1.53 µM (inactive), the GI50 [26] was 18.1 µM (inactive) and the GI50 [27] was 23.4 µM (inactive). For the same molecule, the GI50 [28] was 0.33 µM (active), the GI50 [29] was 24.6 µM (inactive) and the GI50 [30] was 1.95 µM (inactive). The GI50 [31] was 40.6 µM (inactive), the GI50 [32] was 36.3 µM (inactive) and the GI50 [33] was 19.5 µM (inactive). For the same molecule, the GI50 [34] was 57.5 µM (inactive), the GI50 [35] was 20.7 µM (inactive) and the GI50 [36] was 27.4 µM (inactive). The GI50 [37] was 23.9 µM (inactive), the GI50 [38] was 26.2 µM (inactive) and the GI50 [39] was 18.1 µM (inactive). For the same molecule, the GI50 [40] was 20.8 µM (inactive), the GI50 [41] was 20.7 µM (inactive) and the GI50 [42] was 15.9 µM (inactive). The GI50 [43] was 32.7 µM (inactive), the GI50 [44] was 0.608 µM (active) and the GI50 [45] was 27.2 µM (inactive). The GI50 [46] was 19.4 µM (inactive), the GI50 [47] was 18.5 µM (inactive) and the GI50 [49] was 1.5 µM (inactive). For the same molecule, the GI50 [50] was 37.1 µM (inactive), the GI50 [51] was 18.2 µM (inactive) and the GI50 [52] was 6.14 µM (inactive). The GI50 [53] was 21.9 µM (inactive), the GI50 [54] was 21.6 µM (inactive) and the GI50 [55] was 30.7 µM (inactive). For the same molecule, the GI50 [56] was 17.6 µM (inactive), the GI50 [57] was 38.8 µM (inactive) and the GI50 [58] was 1.57 µM (inactive). The GI50 [59] was 19.7 µM (inactive).
